Measurements published in patent US9650423B2, “Long peptides of 22-45 amino acid residues that induce and/or enhance antigen specific immune responses” (priority 2000, dated 2017).
Where two headings read alike, the source gives them in different places. Residues, ends and D or L forms follow the SMILES beside them. No end group written: not given here.

Experiments:
[1] = target: HLA-DR3 (DRB*0301); assay: HLA-DR-peptide binding assay; set-up: species or system human
[2] = test system: HLA-DR 1, 2, 3, 4 and 7; assay: HLA-DR-peptide binding assay, summary over the molecules tested; set-up: species or system human; settings: E7 peptides tested on HLA-DR 1, 2, 3, 4 and 7
Method: The analysis of peptide binding to purified DR molecules was performed using N-terminally fluorescence-labelled standard peptides.

[3] = target: HLA-DR2 (DRB1*0201); assay: HLA-DR-peptide binding assay; set-up: species or system human
[4] = target: T1, HLA-DR1 (DRB*0101) (Homo sapiens, UniProt P01903+P01911, A100R/D57E/F55L/F60I/F76Y/I96L/L162R/M171V/P40L/Q125E/R42F/V115G/Y59C); assay: biochemical; assay type: binding
T1 construct: endogenous in cells; host or cells: LG2.1 B-lymphoblastic cell line, homozygous for HLA-DR

[5] = target: HLA-DR7 (DRB1*0701) (Homo sapiens, UniProt P01903+P01911, A100R/A102G/A103Q/D57E/D86V/E43K/F76Y/K127E/L162R/M171V/P40G/Q125H/Q99D/R33Q/R42Y/R54Q/S133A/S66F/T210M/V115G/Y107V/Y59L/Y89S); settings: read-out: Binding DR7, IC50
[6] = target: HLA-DR4 (DRB*0401); assay: HLA-DR-peptide binding assay; set-up: species or system human
[7] = test system: HPV16 E2-specific Th-clones; assay: HPV16 E2-specific Th-clones: peptide recognition; assay type: cell-based, human; settings: clones from long-term E2 peptide stimulated healthy donor PBMC
Method: Long-term HPV16 E2-specific T-cell cultures and Th-clones were established according to previously described procedures (van der Burg et al. 1999). Briefly, PBMC from healthy HLA-typed donors were stimulated in vitro with the following HPV16 E2 peptides (E2271-300+E2286-315, E2301-330+E2316-345, E2331-365). 15×10^6 PBMC were seeded in 25 cm^2 culture flasks (Nalge Nunc, USA) in 6 ml IMDM supplemented with 10% autologous serum. Peptides were added at a concentration of 5 μg/ml. At day 7.15×10^6 PBMC were added, together with fresh medium and peptides. At day 14 and 21 viable T cells were harvested from the cultures, counted and restimulated with an equal amount of autologous irradiated PBMC and peptide (5 μg/ml). T-cell growth factor (Biotest, Dreieich, Germany) was added 2 days after restimulation at a final concentration of 10%. The T-cell cultures were tested for peptide recognition by proliferation assay at day 28. Peptide-specific T-cell cultures were cloned by limiting dilution and T-cell clones were subsequently tested for the recognition of E2-peptide and -protein-pulsed APC.
Specificity of the Th clones was analysed as described previously (Van der Burg et al. 1999). […] For measurement of proliferation, cultures were pulsed with […] [^3H] thymidine (5 μCi/mM, Amersham, UK) per well for 18 hours. Plates were harvested with a Micro cell Harvester (Skatron, Norway). Filters were packed in plastic covers containing 10 ml of scintillation fluid and subsequently counted on a 1205 Betaplate counter (Wallac, Turku, Finland). HLA-class II blocking experiments were performed using murine monoclonal antibodies: anti-DQ SPV. L3, anti-DR B8. 11.2, and anti-DP B7/21. Supernatants of the proliferation assays were harvested 24 hrs after incubation and analysed for the presence of IFN-γ by ELISA (van der Burg et al., 1999).

[8] = HPV16-E7 22-mer peptides, >70 indicates undetectable binding, read-out: Binding DR3, IC50
[9] = HPV16-E7 22-mer peptides, >70 indicates undetectable binding, read-out: Binding DR2, IC50
[10] = HPV16-E7 22-mer peptides, >70 indicates undetectable binding, read-out: Binding DR4, IC50

CSCC[C@H](NC(=O)[C@H](Cc1ccc(O)cc1)NC(=O)[C@H](CCC(=O)O)NC(=O)[C@H](Cc1c[nH]cn1)NC(=O)[C@H](CC(C)C)NC(=O)[C@@H](NC(=O)[C@@H]1CCCN1C(=O)[C@@H](NC(=O)[C@H](CC(=O)O)NC(=O)CNC(=O)[C@H](Cc1c[nH]cn1)NC(=O)[C@@H](N)CCSC)[C@@H](C)O)[C@@H](C)O)C(=O)N[C@@H](CC(C)C)C(=O)N[C@@H](CC(=O)O)C(=O)N[C@@H](CC(C)C)C(=O)N[C@@H](CCC(N)=O)C(=O)N1CCC[C@H]1C(=O)N[C@@H](CCC(=O)O)C(=O)N[C@H](C(=O)N[C@H](C(=O)N[C@@H](CC(=O)O)C(=O)N[C@@H](CC(C)C)C(=O)O)[C@@H](C)O)[C@@H](C)O [E7 1-22]
IC50 [1, 8]: 0.8 µM | HLA-DR molecules bound [2]: bound to HLA DR2, 3, 4 and 7 | IC50 [3, 9]: 10 µM | IC50 ([4]; read-out: Binding DR1, IC50): > 70 µM | IC50 [5]: 7 µM | IC50 [6, 10]: 30 µM

CSCC[C@H](NC(=O)[C@@H](N)Cc1ccc(O)cc1)C(=O)N[C@@H](CC(C)C)C(=O)N[C@@H](CC(=O)O)C(=O)N[C@@H](CC(C)C)C(=O)N[C@@H](CCC(N)=O)C(=O)N1CCC[C@H]1C(=O)N[C@@H](CCC(=O)O)C(=O)N[C@H](C(=O)N[C@H](C(=O)N[C@@H](CC(=O)O)C(=O)N[C@@H](CC(C)C)C(=O)N[C@@H](Cc1ccc(O)cc1)C(=O)N[C@@H](CS)C(=O)N[C@@H](Cc1ccc(O)cc1)C(=O)N[C@@H](CCC(=O)O)C(=O)N[C@@H](CCC(N)=O)C(=O)N[C@@H](CC(C)C)C(=O)N[C@@H](CC(N)=O)C(=O)N[C@@H](CC(=O)O)C(=O)N[C@@H](CO)C(=O)N[C@@H](CO)C(=O)O)[C@@H](C)O)[C@@H](C)O [E7 11-32]
IC50 [1, 8]: 50 µM | IC50 [3, 9]: > 70 µM | IC50 ([4]; read-out: Binding DR1, IC50): > 70 µM | IC50 [5]: > 70 µM | IC50 [6, 10]: > 70 µM

CC[C@H](C)[C@H](NC(=O)[C@H](CC(N)=O)NC(=O)[C@H](Cc1ccc(O)cc1)NC(=O)[C@@H](N)Cc1c[nH]cn1)C(=O)N[C@H](C(=O)N[C@H](C(=O)N[C@@H](Cc1ccccc1)C(=O)N[C@@H](CS)C(=O)N[C@@H](CS)C(=O)N[C@@H](CCCCN)C(=O)N[C@@H](CS)C(=O)N[C@@H](CC(=O)O)C(=O)N[C@@H](CO)C(=O)N[C@H](C(=O)N[C@@H](CC(C)C)C(=O)N[C@@H](CCCNC(=N)N)C(=O)N[C@@H](CC(C)C)C(=O)N[C@@H](CS)C(=O)N[C@H](C(=O)N[C@@H](CCC(N)=O)C(=O)N[C@@H](CO)C(=O)N[C@H](C(=O)O)[C@@H](C)O)C(C)C)[C@@H](C)O)[C@@H](C)O)C(C)C [E7 51-72] (H-HYNIVTFCCKCDSTLRLCVQST-OH; N-terminus and C-terminus assumed)
IC50 [1, 8]: 50 µM | HLA-DR molecules bound [2]: bound to DR1, 3 and 7 | IC50 [3, 9]: > 70 µM | IC50 [6, 10]: > 70 µM

CC[C@H](C)[C@H](NC(=O)[C@H](CC(=O)O)NC(=O)[C@@H](NC(=O)[C@H](Cc1c[nH]cn1)NC(=O)[C@@H](NC(=O)[C@H](CO)NC(=O)[C@H](CCC(N)=O)NC(=O)[C@@H](NC(=O)[C@H](CS)NC(=O)[C@H](CC(C)C)NC(=O)[C@H](CCCNC(=N)N)NC(=O)[C@H](CC(C)C)NC(=O)[C@@H](NC(=O)[C@H](CO)NC(=O)[C@H](CC(=O)O)NC(=O)[C@@H](N)CS)[C@@H](C)O)C(C)C)[C@@H](C)O)C(C)C)C(=O)N[C@@H](CCCNC(=N)N)C(=O)N[C@H](C(=O)N[C@@H](CC(C)C)C(=O)N[C@@H](CCC(=O)O)C(=O)N[C@@H](CC(=O)O)C(=O)N[C@@H](CC(C)C)C(=O)O)[C@@H](C)O [E7 61-82] (H-CDSTLRLCVQSTHVDIRTLEDL-OH; N-terminus and C-terminus assumed)
IC50 [1, 8]: 65 µM | IC50 [3, 9]: 15 µM | IC50 ([4]; read-out: Binding DR1, IC50): > 70 µM | IC50 [5]: > 70 µM | IC50 [6, 10]: > 70 µM

CC[C@H](C)[C@H](NC(=O)CNC(=O)[C@H](CC(C)C)NC(=O)[C@@H](NC(=O)CNC(=O)[C@H](CCSC)NC(=O)[C@H](CC(C)C)NC(=O)[C@H](CC(C)C)NC(=O)[C@H](CC(=O)O)NC(=O)[C@H](CCC(=O)O)NC(=O)[C@H](CC(C)C)NC(=O)[C@@H](NC(=O)[C@@H](N)CCCNC(=N)N)[C@@H](C)O)[C@@H](C)O)C(=O)N[C@H](C(=O)N[C@@H](CS)C(=O)N1CCC[C@H]1C(=O)N[C@H](C(=O)N[C@@H](CS)C(=O)N[C@@H](CO)C(=O)N[C@@H](CCC(N)=O)C(=O)N[C@@H](CCCCN)C(=O)N1CCC[C@H]1C(=O)O)[C@@H](C)CC)C(C)C [E7 77-98] (H-RTLEDLLMGTLGIVCPICSQKP-OH; N-terminus and C-terminus assumed)
IC50 [1, 8]: > 70 µM | HLA-DR molecules bound [2]: bound to DR1, 2 and DR7 | IC50 [3, 9]: 22 µM | IC50 ([4]; read-out: Binding DR1, IC50, HPV16-E7 22-mer peptides, >70 indicates undetectable binding): 46 µM | IC50 ([5]; HPV16-E7 22-mer peptides, >70 indicates undetectable binding): 0.9 µM | IC50 [6, 10]: > 70 µM

DLYCYEQLNDSSEEEDEIDGPA [E7 21-42]
IC50 [1, 8]: > 70 µM | IC50 [3, 9]: 12 µM | IC50 ([4]; read-out: Binding DR1, IC50): > 70 µM | IC50 [5]: > 70 µM | IC50 [6, 10]: > 70 µM

E2 51-70: Th epitope peptide, amino acids 51-70 of HPV16 E2 (FKHINHQVVPTLAVSKNKAL)
recognition by E2-specific CD4+ Th clones and HLA restriction [7]: in a HLA-DR4 restricted manner

E2 61-75: Th epitope peptide, amino acids 61-75 of HPV16 E2 (TLAVSKNKALQAIEL; UniProt P03120 61-75, looked up, fragment)
recognition by E2-specific CD4+ Th clones and HLA restriction [7]: reacted against

E2 311-325: Th epitope peptide, amino acids 311-325 of HPV16 E2 (LYTAVSSTWHWTGHN)
recognition by E2-specific CD4+ Th clones and HLA restriction [7]: in the context of HLA-DQ6 (1)

E2 351-365: Th epitope peptide, amino acids 351-365 of HPV16 E2 (KIPKTITVSTGFMSI)
recognition by E2-specific CD4+ Th clones and HLA restriction [7]: in a DR1-restricted manner

LRYRFKKHCTLYTAVSSTWHWTGHNVKHKS [E2 301-330]
recognition by E2-specific CD4+ Th clones and HLA restriction [7]: both Th-clones recognized | IC50 ([1]; HPV16-E2 peptides, >70 represents undetectable binding, read-out: Binding affinity DR3, IC50): > 70 µM | IC50 ([3]; HPV16-E2 peptides, >70 represents undetectable binding, read-out: Binding affinity DR2, IC50): 8 µM | IC50 ([4]; HPV16-E2 peptides, >70 represents undetectable binding, read-out: Binding affinity DR1, IC50): 6 µM | IC50 ([6]; HPV16-E2 peptides, >70 represents undetectable binding, read-out: Binding affinity DR4, IC50): 10 µM
